Where two headings read alike, the source gives them in different places.
How the values were obtained:
[1] = Quantification of nifurtimox and metabolites in rat plasma after a single high dose (200 mg/kg); type: in vivo, Wistar rats; conditions: for AUC(0-t) / AUC / Cmax / Tmax / half-life: Wistar, rat, plasma, po, 200 mg/kg; for ratio of rat:human AUC(0-24): rat 200 mg/kg oral vs human 120 mg oral
Description: Blood cells and plasma were then separated by centrifugation, and the plasma was stored at ≤-15°C until required. For analysis, plasma samples were thawed at room temperature and homogenized by vortex mixing. Plasma samples were pooled separately for male and female rats by combining 25 µL from each of the 4 animals for each timepoint. […] To each pooled plasma (100 µL), calibration, or control sample, 300 µL of an internal standard solution containing [^2H8]-nifurtimox (500 ng/mL) and [^2H3]-M-6 (2500 ng/mL) in acetonitrile + 0.5% formic acid in water (v/v) was added and mixed thoroughly. All samples were then centrifuged (20,000 g, 5 min) to precipitate the protein. The supernatant was analyzed using a 1290 Infinity LC system equipped with a diode array detector and an Orbitrap Q-Exactive Plus HRMS (Thermo Fisher Scientific, Bremen, Germany) with a heated electrospray ionization source. […] The mobile phase gradient was: 0 min, 0% B; 2.5 min, 0% B; 3 min, 20% B; 8 min, 45% B; 9 min, 90% B; 10.1 min, 90% B; 12 min, 0% B; 13 min, 0% B. The following HRMS parameters were used: mass range, 120-200 Da (0-2.5 min) and 230-600 Da (2.5-13 min) in full scan mode; resolution, 280,000; ion source voltage, 3500 V; capillary temperature, 300°C; source temperature, 60°C.
The calibration was based on the relative peak area as a function of concentration obtained by linear regression. […] Thus, all concentrations in μg/mL were back-calculated to nmol/mL. The PK parameters for each analyte were calculated using ToxKin software, as described above.

CYP 2A6 = target: T1, CYP 2A6 (Homo sapiens, UniProt P11509); experiment: CYP inhibition with probe substrate; type: in vitro ADME; conditions: coincubation, probe substrate coumarin; read-out: Co- IC50
T1 sequence (P11509 1-494): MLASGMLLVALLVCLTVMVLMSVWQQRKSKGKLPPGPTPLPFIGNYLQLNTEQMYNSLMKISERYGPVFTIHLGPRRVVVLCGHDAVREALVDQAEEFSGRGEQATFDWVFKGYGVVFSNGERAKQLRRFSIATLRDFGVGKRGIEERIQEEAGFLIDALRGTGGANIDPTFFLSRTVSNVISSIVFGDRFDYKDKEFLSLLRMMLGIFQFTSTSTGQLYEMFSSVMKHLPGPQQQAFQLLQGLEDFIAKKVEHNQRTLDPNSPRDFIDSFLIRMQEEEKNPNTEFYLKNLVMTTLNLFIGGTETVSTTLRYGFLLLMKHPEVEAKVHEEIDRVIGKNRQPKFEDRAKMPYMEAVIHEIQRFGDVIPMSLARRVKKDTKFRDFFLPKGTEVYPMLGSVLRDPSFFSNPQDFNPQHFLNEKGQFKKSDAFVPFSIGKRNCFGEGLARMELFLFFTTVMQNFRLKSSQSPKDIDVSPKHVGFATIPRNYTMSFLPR
Description: (§1) The inhibition of cytochrome P450 (CYP) isoforms and a range of cellular transporters (except multidrug and toxin extrusion [MATE] proteins), as well as the induction of CYP isoforms were investigated using previously described methods.

CYP 2B6 = target: T2, CYP 2B6 (Homo sapiens, UniProt P20813); experiment: CYP inhibition with probe substrate; type: in vitro ADME; conditions: probe substrate bupropion
T2 sequence (P20813 1-491): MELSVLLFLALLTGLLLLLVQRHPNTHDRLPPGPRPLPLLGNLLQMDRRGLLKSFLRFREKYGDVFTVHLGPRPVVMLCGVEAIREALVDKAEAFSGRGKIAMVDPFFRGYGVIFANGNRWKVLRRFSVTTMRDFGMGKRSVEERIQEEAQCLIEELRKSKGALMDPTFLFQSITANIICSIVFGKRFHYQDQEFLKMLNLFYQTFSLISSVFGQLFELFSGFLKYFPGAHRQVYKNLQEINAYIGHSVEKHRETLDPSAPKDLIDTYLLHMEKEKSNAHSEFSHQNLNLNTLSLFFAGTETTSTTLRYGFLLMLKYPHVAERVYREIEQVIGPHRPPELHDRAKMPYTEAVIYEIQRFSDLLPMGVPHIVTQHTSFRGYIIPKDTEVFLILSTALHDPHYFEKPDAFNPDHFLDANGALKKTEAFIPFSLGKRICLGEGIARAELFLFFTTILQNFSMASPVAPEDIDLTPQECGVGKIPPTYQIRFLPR
Description: as §1

CYP 2C9 = CYP 2C9 (Homo sapiens, UniProt P11712); experiment: CYP inhibition with probe substrate; type: in vitro ADME; conditions: probe substrate diclofenac
CYP 2C9, sequence (P11712 whole entry): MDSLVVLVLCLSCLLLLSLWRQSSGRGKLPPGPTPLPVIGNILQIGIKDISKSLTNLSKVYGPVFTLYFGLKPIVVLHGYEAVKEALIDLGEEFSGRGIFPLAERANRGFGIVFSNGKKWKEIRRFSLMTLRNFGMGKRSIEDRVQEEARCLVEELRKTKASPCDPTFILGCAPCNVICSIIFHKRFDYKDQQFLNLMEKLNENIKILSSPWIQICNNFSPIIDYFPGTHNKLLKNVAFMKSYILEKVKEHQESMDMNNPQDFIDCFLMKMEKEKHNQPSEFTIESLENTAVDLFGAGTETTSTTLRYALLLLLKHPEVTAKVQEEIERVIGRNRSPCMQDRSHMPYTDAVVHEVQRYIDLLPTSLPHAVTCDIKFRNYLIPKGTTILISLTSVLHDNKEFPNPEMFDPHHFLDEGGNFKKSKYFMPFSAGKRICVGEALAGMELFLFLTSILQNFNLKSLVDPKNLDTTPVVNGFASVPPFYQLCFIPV
Description: as §1

CYP 2D6 = CYP 2D6 (Homo sapiens, UniProt P10635); experiment: CYP inhibition with probe substrate; type: in vitro ADME; conditions: probe substrate dextromethorphan
CYP 2D6, sequence (P10635 whole entry): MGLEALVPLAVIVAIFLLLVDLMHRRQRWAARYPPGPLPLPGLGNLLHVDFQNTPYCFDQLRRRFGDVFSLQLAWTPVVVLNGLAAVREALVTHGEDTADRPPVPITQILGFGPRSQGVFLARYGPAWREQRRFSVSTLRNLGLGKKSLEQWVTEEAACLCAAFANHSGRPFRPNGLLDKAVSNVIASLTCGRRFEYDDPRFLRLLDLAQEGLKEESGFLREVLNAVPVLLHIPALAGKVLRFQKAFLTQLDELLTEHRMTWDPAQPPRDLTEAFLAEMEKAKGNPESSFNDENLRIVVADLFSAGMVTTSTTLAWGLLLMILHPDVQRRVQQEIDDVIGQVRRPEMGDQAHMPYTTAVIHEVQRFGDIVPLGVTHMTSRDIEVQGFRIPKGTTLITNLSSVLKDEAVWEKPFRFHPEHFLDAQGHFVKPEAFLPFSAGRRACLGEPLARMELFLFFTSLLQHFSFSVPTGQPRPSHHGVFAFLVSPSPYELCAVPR
Description: as §1

CYP 2E1 = CYP 2E1 (Homo sapiens, UniProt P05181); experiment: CYP inhibition with probe substrate; type: in vitro ADME; conditions: coincubation, probe substrate chlorzoxazone; read-out: Co- IC50
CYP 2E1, sequence (P05181 whole entry): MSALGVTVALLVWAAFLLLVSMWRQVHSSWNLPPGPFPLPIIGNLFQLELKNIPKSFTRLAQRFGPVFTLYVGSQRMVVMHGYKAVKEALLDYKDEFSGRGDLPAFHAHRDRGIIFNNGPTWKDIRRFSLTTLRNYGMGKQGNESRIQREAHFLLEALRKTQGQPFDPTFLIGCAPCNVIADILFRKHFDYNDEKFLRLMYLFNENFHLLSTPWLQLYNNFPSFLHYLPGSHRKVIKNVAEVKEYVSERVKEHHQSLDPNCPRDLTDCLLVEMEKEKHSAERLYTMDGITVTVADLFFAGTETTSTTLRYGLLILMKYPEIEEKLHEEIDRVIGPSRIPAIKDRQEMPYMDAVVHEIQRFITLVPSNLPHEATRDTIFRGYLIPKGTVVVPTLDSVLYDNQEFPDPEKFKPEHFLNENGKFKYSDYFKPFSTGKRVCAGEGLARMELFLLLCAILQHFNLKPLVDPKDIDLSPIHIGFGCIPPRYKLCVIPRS
Description: as §1

human CYP enzymes = experiment: CYP induction, all isoforms tested (summary); type: in vitro ADME
Description: as §1

[2] = female, read-out: AUC(0–24), female animals
[3] = female, read-out: AUC, female animals
[4] = female, read-out: Cmax, female animals
[5] = female, read-out: tmax, female animals
[6] = female, read-out: t½, female animals (converted)
[7] = male, read-out: AUC(0–24), male animals
[8] = male, read-out: AUC, male animals
[9] = male, read-out: Cmax, male animals
[10] = male, read-out: tmax, male animals
[11] = male, read-out: t½, male animals (converted)
[12] = 30-min preincubation, read-out: Pre- IC50 (+ NADPH)
[13] = coincubation, read-out: Co- IC50

SMILES | AUC(0-t) [1, 2] | AUC [1, 3] | Cmax [1, 4] | Tmax [1, 5] | half-life [1, 6] | AUC(0-t) [1, 7] | AUC [1, 8] | Cmax [1, 9] | Tmax [1, 10] | half-life [1, 11] | IC50 (CYP 2A6) | IC50 (CYP 2B6; [12]) | IC50 (CYP 2B6; [13]) | TDI (time-dependent inhibition) (CYP 2B6) | IC50 (CYP 2C9; [12]) | IC50 (CYP 2C9; [13]) | TDI (time-dependent inhibition) (CYP 2C9) | IC50 (CYP 2D6; [12]) | IC50 (CYP 2D6; [13]) | TDI (time-dependent inhibition) (CYP 2D6) | other results
CC1CS(=O)(=O)CCN1n1cc(SCC(N)C(=O)O)ccc1=O (centres unmarked) [M-4] | 4.84 µM·h | 7.41 µM·h | 0.568 µM | 3 h | 18.6 h | 4.78 µM·h | 9.77 µM·h | 0.338 µM | 2 h | 18.3 h | > 20 µM | > 20 µM | > 20 µM | No | > 20 µM | > 20 µM | No | > 20 µM | > 20 µM | No | ratio of rat:human AUC(0-24) [1]: 2.0-2.1 fold; IC50 (CYP 2E1): > 20 µM; concentration up to which induction of CYP mRNA or activity was absent (human CYP enzymes): ≤ 80 µg/mL
CC1CS(=O)(=O)CCN1N (centres unmarked) [M-6] | 65.8 µM·h | 96.1 µM·h | 3.92 µM | 3 h | 13.5 h | 78.4 µM·h | 148 µM·h | 3.65 µM | 24 h | 10.6 h | > 100 µM | > 100 µM | > 100 µM | No | > 100 µM | > 100 µM | No | > 100 µM | > 100 µM | No | ratio of rat:human AUC(0-24) [1]: 2.4-2.8 fold; IC50 (CYP 2E1): > 100 µM; concentration up to which induction of CYP mRNA or activity was absent (human CYP enzymes): ≤ 90 µg/mL
CC1CS(=O)(=O)CCN1/N=C/c1ccc([N+](=O)[O-])o1 (centres unmarked) [Nifurtimox, (E)-N-(3-methyl-1,1-dioxo-1,4-thiazinan-4-yl)-1-(5-nitrofuran-2-yl) methanimine, reference compound] | 117 µM·h | 121 µM·h | 18.3 µM | 1 h | 5 h | 138 µM·h | 184 µM·h | 10.1 µM | 2 h | 5 h | > 50 µM | > 50 µM | > 50 µM | No | > 50 µM | > 50 µM | No | > 50 µM | > 50 µM | No | IC50 (CYP 2E1): > 50 µM; concentration up to which induction of CYP mRNA or activity was absent (human CYP enzymes): up to 30 mg/L

— paper PMC10661964 (Current Drug Metabolism, 2023)
